Measured values from patent publication US20090227507A1, “Angiotensin (1-7) Dosage Forms and Uses Thereof” (UNIVERSITY OF SOUTHERN CALIFORNIA, priority 2008, published 2009).

Assays:
[1] = 12-lead electrocardiogram in healthy men; format: in vivo, human; conditions: Screening or Study Day 8
From the text: Safety assessments during the study period included vital sign measurement (systolic [SBP] and diastolic [DBP] blood pressure, heart rate [HR], respiratory rate [RR] in the sitting position, and oral temperature), clinical chemistry, hematology, urinalysis, 12-lead electrocardiogram (ECG) in the supine position, and AE monitoring. Clinical chemistry/hematology samples were drawn within a 30-minute period prior to dosing on selected dosing days.

[2] = test system: CD34+ cells in peripheral blood; assay: Flow cytometry of peripheral blood, CD34+ progenitor cells; USB003 SC once daily for 7 days in healthy men; format: in vivo, human; parameters: key to Subjects with shift, Absolute CD34, N-L (normal to low) / Subjects with shift, Absolute CD34, N-H (normal to high) / Subjects with shift, Absolute CD34, L-N (low to normal) / Subjects with shift, Absolute CD34, H-N (high to normal): — signifies subject with no shift from baseline; conditions: for CD34^+, Absolute, Mean at Baseline: Baseline (Day 1)
Description: (§1) • Single-center, randomized, double-blind, placebo-controlled, 2 cohort dose-escalation trial of once daily dosing over a 7-day period (7 doses total): • Cohort 1: 2 subjects treated with placebo and 8 subjects treated with 200 μg/kg USB003 (A(1-7)) • Cohort 2: 2 subjects treated with placebo and 8 subjects treated with 300 μg/kg USB003 • For each cohort, there was a Screening Period, Treatment Phase, Follow-up Period, and Study Termination or Early Withdrawal Day. Subjects were confined to the study unit during the Treatment Phase. • Cohort 2 was treated approximately 1 week after completion of the Treatment Phase for Cohort 1 to allow time for the assessment of safety and tolerability in the first cohort.
(§2) Pharmacological Effect: The following evaluations (under efficacy and safety in the protocol) were performed: • Effects on the number of mature blood cells: • 1. CBC (with differential), platelet count, reticulocyte count. • Effects on early hematopoietic progenitor cells and mature lymphocyte subsets in the periphery: • 1. Flow cytometry to evaluate frequency of peripheral blood progenitor cells (eg, CD34^+) and lymphocyte subsets (eg, CD3, CD4, CD8) in peripheral blood. • 2. Collection of blood for later possible culture for progenitor cells (eg, colony forming units-granulocyte/macrophage [CFU-GM]) to evaluate potential effects on CD34^+ hematopoietic progenitor cells in peripheral blood. • 3.
(§3) The effect of USB003 on the number of mature blood cells was assessed by the complete blood count with differential, platelet and reticulocyte counts. The effects on early hematopoietic progenitor cells and mature lymphocyte subsets in the periphery were assessed by flow cytometry. In addition, blood was collected and processed to enable culture of progenitors at a later time.
(§4) Red blood cell (RBC) count, RBC indices, white blood cell count (WBC) with differential, reticulocyte count, platelet count, hemoglobin (Hb), hematocrit (Hct), plasma hemoglobin, peripheral flow cytometry, including CD34^+, flow cytometry for enumeration of CD3, CD4, and CD8 lymphocytes, and culture for progenitor cells in peripheral blood including colony-forming units-granulocyte/macrophage (CFU-GM).

[3] = Renal laboratory values (serum creatinine, creatinine clearance, 24-hour urine) in healthy men; conditions: human, in vivo
Description: USB003 was administered SC in the abdomen by a qualified study staff member 24 hours after the previous (Day 6) injection.
Blood, urobilinogen, ketones, glucose, protein, microscopic examination of sediment, sodium, and potassium.

[4] = test system: CD4 cells in peripheral blood; assay: Flow cytometry of peripheral blood, CD4 lymphocytes; USB003 SC once daily for 7 days in healthy men; format: in vivo, human; parameters: key to Subjects with shift, Absolute CD4, N-L (normal to low) / Subjects with shift, Absolute CD4, N-H (normal to high) / Subjects with shift, Absolute CD4, H-N (high to normal) / Subjects with shift, Absolute CD4, L-N (low to normal): — signifies subject with no shift from baseline; conditions: for CD4, Absolute, Mean at Baseline: Baseline (Day 1)
Description: as §1, §2, §3, §4

lymphocyte numbers = assay: Lymphocyte recovery after subcutaneous TXA127 in subjects without HIV infection (breast cancer subjects receiving chemotherapy); format: in vivo; conditions: human subjects without HIV infection (e.g., breast cancer subjects receiving cancer chemotherapy)
From the text: In the absence of effective antiretroviral therapy, HIV disease is characterized by the relentless destruction of CD4+ T-lymphocytes resulting in disordered and declining immune function.

What does the source list for Asp-Arg-Val-Tyr-Ile-His-Pro [USB003]?
12-lead ECG findings [1]: no abnormal CS 12-lead ECGs findings; CD34^+, Absolute, Mean at Baseline ([2]; 200 μg/kg): 2.50 cells/μL; Subjects with shift, Absolute CD34, H-N (high to normal) ([2]; 200 μg/kg, Baseline to Day 8): —; Subjects with shift, Absolute CD34, L-N (low to normal) ([2]; 200 μg/kg, Baseline to Day 8): —; Subjects with shift, Absolute CD34, N-H (normal to high) ([2]; 200 μg/kg, Baseline to Day 8): —; Subjects with shift, Absolute CD34, N-L (normal to low) ([2]; 200 μg/kg, Baseline to Day 8): —; Subjects with shift, Absolute CD34, H-N (high to normal) ([2]; 200 μg/kg, Baseline to Day 20): —; Subjects with shift, Absolute CD34, L-N (low to normal) ([2]; 200 μg/kg, Baseline to Day 20): —; Subjects with shift, Absolute CD34, N-H (normal to high) ([2]; 200 μg/kg, Baseline to Day 20): —; Subjects with shift, Absolute CD34, N-L (normal to low) ([2]; 200 μg/kg, Baseline to Day 20): —; CD34^+, Absolute, Mean Change from Baseline ([2]; 200 μg/kg, Day 3): 0.23 cells/μL; CD34^+, Absolute, Mean Change from Baseline ([2]; 200 μg/kg, Day 5): 0.61 cells/μL; CD34^+, Absolute, Mean Change from Baseline ([2]; 200 μg/kg, Day 7): 1.11 cells/μL; CD34^+, Absolute, Mean Change from Baseline ([2]; 200 μg/kg, Day 8): 0.33 cells/μL; CD34^+, Absolute, Mean Change from Baseline ([2]; 200 μg/kg, Day 11): 0.13 cells/μL; CD34^+, Absolute, Mean Change from Baseline ([2]; 200 μg/kg, Day 14): 0.61 cells/μL; CD34^+, Absolute, Mean Change from Baseline ([2]; 200 μg/kg, Day 17): −0.40 cells/μL; CD34^+, Absolute, Mean Change from Baseline ([2]; 200 μg/kg, Day 20): −0.46 cells/μL; CD34^+, Absolute, Mean at Baseline ([2]; 300 μg/kg): 2.55 cells/μL; Subjects with shift, Absolute CD34, H-N (high to normal) ([2]; 300 μg/kg, Baseline to Day 8): —; Subjects with shift, Absolute CD34, L-N (low to normal) ([2]; 300 μg/kg, Baseline to Day 8): —; Subjects with shift, Absolute CD34, N-H (normal to high) ([2]; 300 μg/kg, Baseline to Day 8): —; Subjects with shift, Absolute CD34, N-L (normal to low) ([2]; 300 μg/kg, Baseline to Day 8): —; Subjects with shift, Absolute CD34, H-N (high to normal) ([2]; 300 μg/kg, Baseline to Day 20): —; Subjects with shift, Absolute CD34, L-N (low to normal) ([2]; 300 μg/kg, Baseline to Day 20): —; Subjects with shift, Absolute CD34, N-H (normal to high) ([2]; 300 μg/kg, Baseline to Day 20): —; Subjects with shift, Absolute CD34, N-L (normal to low) ([2]; 300 μg/kg, Baseline to Day 20): —; CD34^+, Absolute, Mean Change from Baseline ([2]; 300 μg/kg, Day 3): 1.80 cells/μL; CD34^+, Absolute, Mean Change from Baseline ([2]; 300 μg/kg, Day 5): 0.56 cells/μL; CD34^+, Absolute, Mean Change from Baseline ([2]; 300 μg/kg, Day 7): −0.01 cells/μL; CD34^+, Absolute, Mean Change from Baseline ([2]; 300 μg/kg, Day 8): 0.88 cells/μL; CD34^+, Absolute, Mean Change from Baseline ([2]; 300 μg/kg, Day 11): −0.74 cells/μL; CD34^+, Absolute, Mean Change from Baseline ([2]; 300 μg/kg, Day 14): −0.41 cells/μL; CD34^+, Absolute, Mean Change from Baseline ([2]; 300 μg/kg, Day 17): −0.31 cells/μL; CD34^+, Absolute, Mean Change from Baseline ([2]; 300 μg/kg, Day 20): −0.35 cells/μL; change in the number of CD34+ cells in the peripheral blood ([2]; last day of treatment, not observed 12 days after administration): dose-related change; Creatinine Clearance shift L-N, number of subjects ([3]; 200 ug/kg): 3; creatinine clearance ([3]; 200 ug/kg): increase; subjects with creatinine clearance shifted from low to normal ([3]; 200 ug/kg): 3 of the 9; Creatinine Clearance shift L-N, number of subjects ([3]; 300 ug/kg): 2; Creatinine Clearance shift N-L, number of subjects ([3]; 300 ug/kg): 1; increase in creatinine clearance ([3]; 300 ug/kg): not observed; subjects with creatinine clearance shifted from low to normal ([3]; 300 ug/kg): 2 of the 8; CD4, Absolute, Mean at Baseline ([4]; 200 μg/kg): 1122.6 cells/μL; Subjects with shift, Absolute CD4, H-N (high to normal) ([4]; 200 μg/kg, Baseline to Day 8): 1; Subjects with shift, Absolute CD4, L-N (low to normal) ([4]; 200 μg/kg, Baseline to Day 8): —; Subjects with shift, Absolute CD4, N-H (normal to high) ([4]; 200 μg/kg, Baseline to Day 8): —; Subjects with shift, Absolute CD4, N-L (normal to low) ([4]; 200 μg/kg, Baseline to Day 8): —; Subjects with shift, Absolute CD4, H-N (high to normal) ([4]; 200 μg/kg, Baseline to Day 20): 1; Subjects with shift, Absolute CD4, L-N (low to normal) ([4]; 200 μg/kg, Baseline to Day 20): —; Subjects with shift, Absolute CD4, N-H (normal to high) ([4]; 200 μg/kg, Baseline to Day 20): —; Subjects with shift, Absolute CD4, N-L (normal to low) ([4]; 200 μg/kg, Baseline to Day 20): —; CD4, Absolute, Mean Change from Baseline ([4]; 200 μg/kg, Day 3): −88.0 cells/μL; CD4, Absolute, Mean Change from Baseline ([4]; 200 μg/kg, Day 5): 39.5 cells/μL; CD4, Absolute, Mean Change from Baseline ([4]; 200 μg/kg, Day 7): 53.6 cells/μL; CD4, Absolute, Mean Change from Baseline ([4]; 200 μg/kg, Day 8): −24.0 cells/μL; CD4, Absolute, Mean Change from Baseline ([4]; 200 μg/kg, Day 11): 82.5 cells/μL; CD4, Absolute, Mean Change from Baseline ([4]; 200 μg/kg, Day 14): 12.1 cells/μL; CD4, Absolute, Mean Change from Baseline ([4]; 200 μg/kg, Day 17): −70.5 cells/μL; CD4, Absolute, Mean Change from Baseline ([4]; 200 μg/kg, Day 20): −58.0 cells/μL; CD4, Absolute, Mean at Baseline ([4]; 300 μg/kg): 734.4 cells/μL; Subjects with shift, Absolute CD4, H-N (high to normal) ([4]; 300 μg/kg, Baseline to Day 8): —; Subjects with shift, Absolute CD4, L-N (low to normal) ([4]; 300 μg/kg, Baseline to Day 8): 1; Subjects with shift, Absolute CD4, N-H (normal to high) ([4]; 300 μg/kg, Baseline to Day 8): —; Subjects with shift, Absolute CD4, N-L (normal to low) ([4]; 300 μg/kg, Baseline to Day 8): —; Subjects with shift, Absolute CD4, H-N (high to normal) ([4]; 300 μg/kg, Baseline to Day 20): —; Subjects with shift, Absolute CD4, L-N (low to normal) ([4]; 300 μg/kg, Baseline to Day 20): —; Subjects with shift, Absolute CD4, N-H (normal to high) ([4]; 300 μg/kg, Baseline to Day 20): —; Subjects with shift, Absolute CD4, N-L (normal to low) ([4]; 300 μg/kg, Baseline to Day 20): 1; CD4, Absolute, Mean Change from Baseline ([4]; 300 μg/kg, Day 3): 109.6 cells/μL; CD4, Absolute, Mean Change from Baseline ([4]; 300 μg/kg, Day 5): 108.1 cells/μL; CD4, Absolute, Mean Change from Baseline ([4]; 300 μg/kg, Day 7): 129.3 cells/μL; CD4, Absolute, Mean Change from Baseline ([4]; 300 μg/kg, Day 8): 31.1 cells/μL; CD4, Absolute, Mean Change from Baseline ([4]; 300 μg/kg, Day 11): −29.3 cells/μL; CD4, Absolute, Mean Change from Baseline ([4]; 300 μg/kg, Day 14): 9.7 cells/μL; CD4, Absolute, Mean Change from Baseline ([4]; 300 μg/kg, Day 17): −40.0 cells/μL; CD4, Absolute, Mean Change from Baseline ([4]; 300 μg/kg, Day 20): 48.9 cells/μL; lymphocyte numbers following subcutaneous injection (lymphocyte numbers): dramatic recovery of lymphocyte numbers
